Key:
[1] = system: wheat; assay: Test B pre/postemergence wheat; assay type: in vivo, Triticum aestivum; details: for Wheat plant response rating: scale of 0 to 10 where 0 is no effect and 10 is complete control
Summary of the method: (§1)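 Herbicidal effect was estimated by eye on a ten-point control scale after plants spent twelve to sixteen days in a greenhouse following soil or foliar treatment. Foliar sprays targeted plants at one to four leaves; all doses were formulated in a non-phytotoxic solvent with surfactant.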

[2] = system: rice; assay: Test B flood test rice; assay type: in vivo, Oryza sativa
Summary of the method: (§2)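 Plants were grown to the 2-leaf stage before treatment with test chemical, then held in a greenhouse for twelve to sixteen days. Injury was visually rated against untreated controls on a 0–10 scale, where 0 is no effect and 10 is complete control.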

[3] = system: morningglory; assay: Test B pre/postemergence morningglory; assay type: in vivo, Ipomoea hederacea; details: for Morningglory plant response rating: scale of 0 to 10 where 0 is no effect and 10 is complete control
Summary of the method: as §1

[4] = system: wild oat; assay: Test B pre/postemergence wild oat; assay type: in vivo, Avena fatua; details: for Wild oats plant response rating: scale of 0 to 10 where 0 is no effect and 10 is complete control
Summary of the method: as §1

[5] = system: giant foxtail; assay: Test B pre/postemergence giant foxtail; assay type: in vivo, Setaria faberii; details: for Giant foxtail plant response rating: scale of 0 to 10 where 0 is no effect and 10 is complete control
Summary of the method: as §1

[6] = system: duck salad; assay: Test B flood test duck salad; assay type: in vivo, Heteranthera limosa
Summary of the method: as §2

[7] = system: crabgrass; assay: Test B pre/postemergence crabgrass; assay type: in vivo, Digitaria sanguinalis; details: for Crabgrass plant response rating: scale of 0 to 10 where 0 is no effect and 10 is complete control
Summary of the method: as §1

[8] = system: soybean; assay: Test B pre/postemergence soybean; assay type: in vivo, Glycine max; details: for Soybean plant response rating: scale of 0 to 10 where 0 is no effect and 10 is complete control
Summary of the method: as §1

[9] = system: velvetleaf; assay: Test B pre/postemergence velvetleaf; assay type: in vivo, Abutilon theophrasti; details: for Velvetleaf plant response rating: scale of 0 to 10 where 0 is no effect and 10 is complete control
Summary of the method: as §1

[10] = system: smallflower flatsedge; assay: Test B flood test smallflower flatsedge; assay type: in vivo, Cyperus difformis
Summary of the method: as §2

[11] = system: blackgrass; assay: Test B pre/postemergence blackgrass; assay type: in vivo, Alopecurus myosuroides; details: for Blackgrass plant response rating: scale of 0 to 10 where 0 is no effect and 10 is complete control
Summary of the method: as §1

[12] = system: rape; assay: Test B pre/postemergence rape; assay type: in vivo, Brassica napus; details: for Rape plant response rating: scale of 0 to 10 where 0 is no effect and 10 is complete control
Summary of the method: as §1

[13] = system: purple nutsedge; assay: Test B pre/postemergence purple nutsedge; assay type: in vivo, Cyperus rotundus; details: for Nutsedge plant response rating: scale of 0 to 10 where 0 is no effect and 10 is complete control
Summary of the method: as §1

[14] = system: bedstraw; assay: Test B pre/postemergence bedstraw; assay type: in vivo, Galium aparine; details: Preemergence
Summary of the method: as §1

[15] = system: corn; assay: Test B pre/postemergence corn; assay type: in vivo, Zea mays; details: for Corn plant response rating: scale of 0 to 10 where 0 is no effect and 10 is complete control
Summary of the method: as §1

[16] = system: surinam grass; assay: Test B pre/postemergence surinam grass; assay type: in vivo, Brachiaria decumbens; details: for B. signalgrass plant response rating: scale of 0 to 10 where 0 is no effect and 10 is complete control
Summary of the method: as §1

[17] = Postemergence, Rate 125 g/ha, scale 0 to 10, 0 is no effect, 10 is complete control
[18] = Postemergence, Rate 250 g/ha, scale 0 to 10, 0 is no effect, 10 is complete control
[19] = Preemergence, Rate 62 g/ha, scale 0 to 10 (0 no effect, 10 complete control)
[20] = Rate 500 g/ha, Postemergence, scale 0 to 10, 0 no effect, 10 complete control
[21] = Postemergence (flood test), Rate 125 g/ha, scale 0 to 10, 0 is no effect, 10 is complete control
[22] = Rate 62 g/ha, Postemergence (flood test species), scale of 0 to 10 where 0 is no effect and 10 is complete control
[23] = Rate 62 g/ha, flood test species, Pre-emergence, visual evaluation after twelve to sixteen days
[24] = Rate 125 g/ha, Pre-emergence, flood test species, scale 0 to 10 where 0 is no effect and 10 is complete control
[25] = Rate 250 g/ha, Pre-emergence, flood-test species, scale 0 to 10, 0 is no effect, 10 is complete control
[26] = Rate 500 g/ha, listed under Postemergence (flood test species), scale 0 to 10, 0 no effect, 10 complete control
[27] = Rate 500 g/ha, Pre-emergence, flood test species, scale 0 to 10 (0 no effect, 10 complete control)
[28] = flood test species, listed under Postemergence, Rate 250 g/ha, scale 0 to 10, 0 is no effect, 10 is complete control

SMILES: CC1CC1n1c(=O)on(C(=O)N(c2ccccc2)C(C)C)c1=O (stereo not drawn) [Compound 370]
- Plant response rating, Wheat [1, 17]: 0
- Plant response rating, Wheat [1, 18]: 0
- Plant response rating, Wheat [1, 19]: 0
- Wheat plant response rating (0 to 10 scale) ([1]; Preemergence, Rate 125 g/ha): 0
- Wheat plant response rating ([1]; Preemergence, Rate 250 g/ha): 2
- Wheat plant response rating ([1]; Preemergence, Rate 500 g/ha): 7
- Wheat plant response rating ([1]; Rate 62 g/ha, Postemergence): 0
- Plant response rating, Wheat [1, 20]: 3
- Plant response rating, Rice [2, 21]: 0
- Rice plant response rating [2, 22]: 0
- Plant response rating, Rice (0 to 10 scale, 0 is no effect, 10 is complete control) [2, 23]: 0
- Rice plant response rating [2, 24]: 0
- Rice plant response rating [2, 25]: 0
- Plant response rating, Rice [2, 26]: 2
- Rice plant response rating [2, 27]: 0
- Plant response rating, Rice [2, 28]: 2
- Plant response rating, Morningglory [3, 17]: 10
- Plant response rating, Morningglory [3, 18]: 10
- Plant response rating, Morningglory [3, 19]: 0
- Morningglory plant response rating (0 to 10 scale) ([3]; Preemergence, Rate 125 g/ha): 0
- Morningglory plant response rating ([3]; Preemergence, Rate 250 g/ha): 2
- Morningglory plant response rating ([3]; Preemergence, Rate 500 g/ha): 3
- Morningglory plant response rating ([3]; Rate 62 g/ha, Postemergence): 10
- Plant response rating, Morningglory [3, 20]: 10
- Plant response rating, Wild oats [4, 17]: 0
- Plant response rating, Wild oats [4, 18]: 3
- Plant response rating, Wild oats [4, 19]: 0
- Wild oats plant response rating (0 to 10 scale) ([4]; Preemergence, Rate 125 g/ha): 0
- Wild oats plant response rating ([4]; Preemergence, Rate 250 g/ha): 2
- Wild oats plant response rating ([4]; Preemergence, Rate 500 g/ha): 10
- Wild oats plant response rating ([4]; Rate 62 g/ha, Postemergence): 0
- Plant response rating, Wild oats [4, 20]: 5
- Plant response rating, Giant foxtail [5, 17]: 8
- Plant response rating, Giant foxtail [5, 18]: 8
- Plant response rating, Giant foxtail [5, 19]: 9
- Giant foxtail plant response rating (0 to 10 scale) ([5]; Preemergence, Rate 125 g/ha): 10
- Giant foxtail plant response rating ([5]; Preemergence, Rate 250 g/ha): 10
- Giant foxtail plant response rating ([5]; Preemergence, Rate 500 g/ha): 10
- Giant foxtail plant response rating ([5]; Rate 62 g/ha, Postemergence): 6
- Plant response rating, Giant foxtail [5, 20]: 9
- Plant response rating, Ducksalad [6, 21]: 2
- Ducksalad plant response rating [6, 22]: 0
- Plant response rating, Ducksalad (0 to 10 scale, 0 is no effect, 10 is complete control) [6, 23]: 0
- Ducksalad plant response rating [6, 24]: 0
- Ducksalad plant response rating [6, 25]: 0
- Plant response rating, Ducksalad [6, 26]: 3
- Ducksalad plant response rating [6, 27]: 0
- Plant response rating, Ducksalad [6, 28]: 3
- Plant response rating, Crabgrass [7, 17]: 7
- Plant response rating, Crabgrass [7, 18]: 7
- Plant response rating, Crabgrass [7, 19]: 7
- Crabgrass plant response rating (0 to 10 scale) ([7]; Preemergence, Rate 125 g/ha): 8
- Crabgrass plant response rating ([7]; Preemergence, Rate 250 g/ha): 9
- Crabgrass plant response rating ([7]; Preemergence, Rate 500 g/ha): 10
- Crabgrass plant response rating ([7]; Rate 62 g/ha, Postemergence): 3
- Plant response rating, Crabgrass [7, 20]: 9
- Plant response rating, Soybean [8, 17]: 2
- Plant response rating, Soybean [8, 18]: 3
- Plant response rating, Soybean [8, 19]: 0
- Soybean plant response rating (0 to 10 scale) ([8]; Preemergence, Rate 125 g/ha): 0
- Soybean plant response rating ([8]; Preemergence, Rate 250 g/ha): 2
- Soybean plant response rating ([8]; Preemergence, Rate 500 g/ha): 7
- Soybean plant response rating ([8]; Rate 62 g/ha, Postemergence): 1
- Plant response rating, Soybean [8, 20]: 4
- Plant response rating, Velvetleaf [9, 17]: 0
- Plant response rating, Velvetleaf [9, 18]: 0
- Plant response rating, Velvetleaf [9, 19]: 2
- Velvetleaf plant response rating (0 to 10 scale) ([9]; Preemergence, Rate 125 g/ha): 4
- Velvetleaf plant response rating ([9]; Preemergence, Rate 250 g/ha): 5
- Velvetleaf plant response rating ([9]; Preemergence, Rate 500 g/ha): 6
- Velvetleaf plant response rating ([9]; Rate 62 g/ha, Postemergence): 0
- Plant response rating, Velvetleaf [9, 20]: 4
- Plant response rating, S. Flatsedge [10, 21]: 3
- S. Flatsedge plant response rating [10, 22]: 2
- Plant response rating, S. Flatsedge (0 to 10 scale, 0 is no effect, 10 is complete control) [10, 23]: 0
- S. Flatsedge plant response rating [10, 24]: 0
- S. Flatsedge plant response rating [10, 25]: 0
- Plant response rating, S. Flatsedge [10, 26]: 7
- S. Flatsedge plant response rating [10, 27]: 0
- Plant response rating, S. Flatsedge [10, 28]: 4
- Plant response rating, Blackgrass [11, 17]: 4
- Plant response rating, Blackgrass [11, 18]: 4
- Plant response rating, Blackgrass [11, 19]: 6
- Blackgrass plant response rating (0 to 10 scale) ([11]; Preemergence, Rate 125 g/ha): 8
- Blackgrass plant response rating ([11]; Preemergence, Rate 250 g/ha): 9
- Blackgrass plant response rating ([11]; Preemergence, Rate 500 g/ha): 10
- Blackgrass plant response rating ([11]; Rate 62 g/ha, Postemergence): 2
- Plant response rating, Blackgrass [11, 20]: 5
- Plant response rating, Rape [12, 17]: 0
- Plant response rating, Rape [12, 18]: 2
- Plant response rating, Rape [12, 19]: 0
- Rape plant response rating (0 to 10 scale) ([12]; Preemergence, Rate 125 g/ha): 0
- Rape plant response rating ([12]; Preemergence, Rate 250 g/ha): 6
- Rape plant response rating ([12]; Preemergence, Rate 500 g/ha): 10
- Rape plant response rating ([12]; Rate 62 g/ha, Postemergence): 0
- Plant response rating, Rape [12, 20]: 3
- Plant response rating, Nutsedge [13, 17]: 0
- Plant response rating, Nutsedge [13, 18]: 0
- Plant response rating, Nutsedge [13, 19]: 0
- Nutsedge plant response rating (0 to 10 scale) ([13]; Preemergence, Rate 125 g/ha): 0
- Nutsedge plant response rating ([13]; Preemergence, Rate 250 g/ha): 5
- Nutsedge plant response rating ([13]; Preemergence, Rate 500 g/ha): 10
- Nutsedge plant response rating ([13]; Rate 62 g/ha, Postemergence): 0
- Plant response rating, Nutsedge [13, 20]: 5
- Plant response rating, Bedstraw ([14]; Rate 62 g/ha, scale 0 to 10 (0 no effect, 10 complete control)): 0
- Bedstraw plant response rating (0 to 10 scale) ([14]; Rate 125 g/ha): 3
- Bedstraw plant response rating ([14]; Rate 250 g/ha, scale of 0 to 10 where 0 is no effect and 10 is complete control): 3
- Plant response rating, Corn [15, 17]: 0
- Plant response rating, Corn [15, 18]: 0
- Plant response rating, Corn [15, 19]: 0
- Corn plant response rating (0 to 10 scale) ([15]; Preemergence, Rate 125 g/ha): 2
- Corn plant response rating ([15]; Preemergence, Rate 250 g/ha): 4
- Corn plant response rating ([15]; Preemergence, Rate 500 g/ha): 9
- Corn plant response rating ([15]; Rate 62 g/ha, Postemergence): 0
- Plant response rating, Corn [15, 20]: 5
- Plant response rating, B. signalgrass [16, 17]: 2
- Plant response rating, B. signalgrass [16, 18]: 4
- Plant response rating, B. signalgrass [16, 19]: 0
- B. signalgrass plant response rating (0 to 10 scale, 0 is no effect, 10 is complete control) ([16]; Preemergence, Rate 125 g/ha): 0
- B. signalgrass plant response rating ([16]; Preemergence, Rate 250 g/ha): 2
- B. signalgrass plant response rating ([16]; Preemergence, Rate 500 g/ha): 5
- B. signalgrass plant response rating ([16]; Rate 62 g/ha, Postemergence): 0
- Plant response rating, B. signalgrass [16, 20]: 6
